What was measured:
SJSA-1 xenograft model = settings: cited from earlier work; for tumor growth in SJSA-1 xenograft model: high oral doses (200–300 mg/kg) ref 8, 21
[1] = system: p53 activation in SJSA-1 osteosarcoma cell line; test: Western blot analysis of p53 activation and PARP cleavage in SJSA-1 cells; format: cell-based, human; settings: for full-length PARP (apoptosis induction) / p53 activation (accumulation of p53, MDM2 and p21): 24 h
[2] = system: p53 activation and apoptosis in SJSA-1 xenograft tumor tissues; test: Pharmacodynamics study in SJSA-1 xenograft tumor tissues
[3] = single oral dose 100 mg/kg, 24 h

SMILES | complete tumor regression (SJSA-1 xenograft model) | tumor growth in SJSA-1 xenograft model (SJSA-1 xenograft model) | full-length PARP (apoptosis induction) ([1]; Western blot) | p53 activation (accumulation of p53, MDM2 and p21) ([1]; Western blot) | cleavage of PARP and caspase-3 in tumor tissue ([2]; single oral dose 100 mg/kg, 1, 3 and 6 h) | p53, p21 and MDM2 protein levels in tumor tissue ([2]; single oral dose 100 mg/kg, 3 h and 6 h) | cleavage of PARP and caspase-3 in tumor tissue [2, 3] | p53, p21 and MDM2 protein levels in tumor tissue [2, 3] | times more potent than 2 in p53 activation [1] | times more potent than Nutlin-3a in p53 activation [1] [times] | lowest concentration activating p53 (clear accumulation of p21 and p53) ([1]; Western blot) [nM]
CC(C)(C)C[C@H]1N[C@@H](C(=O)NCC[C@H](O)CO)[C@H](c2cccc(Cl)c2)[C@@]12C(=O)Nc1cc(Cl)c(F)cc12 [Compound 1] | failed to achieve complete tumor regression | inhibited tumor growth |  |  |  |  |  |  |  |  | 
CC(C)(C)C[C@@H]1N[C@@H](C(=O)NCC[C@H](O)CO)[C@H](c2cccc(Cl)c2F)[C@]12C(=O)Nc1cc(Cl)ccc12 [Compound 2] | failed to achieve complete tumor regression | inhibited tumor growth | dose-dependently diminished | effectively and dose-dependently activate p53 |  |  |  |  |  |  | 
CC(C)(C)C[C@@H]1N[C@@H](C(=O)N[C@H]2C[C@@](C)(O)C2)[C@H](c2cccc(Cl)c2F)[C@]12C(=O)Nc1cc(Cl)ccc12 [Compound 9] |  |  | dose-dependently diminished | effectively and dose-dependently activate p53 | minimal | robust upregulation | very clear | significantly diminished | at least 3 times | 10 | 30
COc1ccc(C2=N[C@@H](c3ccc(Cl)cc3)[C@@H](c3ccc(Cl)cc3)N2C(=O)N2CCNC(=O)C2)c(OC(C)C)c1 [Nutlin-3a, reference compound] |  |  | dose-dependently diminished | effectively and dose-dependently activate p53 |  |  |  |  |  |  | 
